From the METLIN SMRT retention time set (Domingo-Almenara et al. 2019)

Assay: gradient 5% acetonitrile 3 min, to 50% in 2 min, to 85% in 15 min, held 3 min, 100 µL/min
Conditions: column: Zorbax Extend-C18 2.1 x 50 mm; eluents: water / acetonitrile, 0.1% formic acid
How it was run: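 The system's dead and dwell volumes were 40 μL and 900 μL, with a Zorbax Extend-C18 column (2.1 × 50 mm, 1.8 μm) run at 100 μL/min in water and acetonitrile containing 0.1% formic acid each. Pure standards were analyzed in mixtures of ~100 molecules by HPLC–quadrupole time-of-flight mass spectrometry in positive and negative ionization mode. Retention time was assigned from computationally picked, manually inspected adduct peaks.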

SMILES | RP-LC retention time [s]
O=C(C1CC1)N1CCc2c([nH]c3ccccc23)C1c1ccc(F)cc1 (stereo not drawn) | 1050
Cc1c(C(=O)N2CCSCC2)cnn1-c1ccc(-c2nc(C3CC3)no2)cn1 | 960
O=C(c1cc2ccccc2[nH]1)N1CC2CN(S(=O)(=O)c3cccc(F)c3)CC(C1)O2 | 862
COc1ccccc1-c1[nH]ncc1CN1CC(F)(F)C[C@H]1CN1CCOCC1 | 555
CCc1ccccc1N1C(=O)CC(N2CCC(C(N)=O)CC2)C1=O (stereo not drawn) | 591
Cc1cc2nn(CC(=O)Nc3c(C)cccc3C)c(=O)n2c(-c2ccc(F)cc2)n1 | 826
CCN1CCCCc2cc(C(=O)NCC(F)F)sc21 | 892
COc1ccc(CCc2nc(-c3ccc4oc(C)nc4c3)no2)cc1 | 1210
N#Cc1cccc(NC(=O)Cn2c(=O)cc(C(=O)N3CCCC3)c3ccccc32)c1 | 690
NC(=O)c1ccc(NC(=O)c2sc3ncccc3c2-n2cccc2)cc1 | 728
CCc1sc(NC(=O)c2cc3c([nH]c2=O)CCCC3=O)nc1-c1ccc(Cc2ccccc2)cc1 | 1140
Cc1cccc(-c2noc(C3CCCN3S(=O)(=O)c3ccc(C(C)C)cc3)n2)c1 (stereo not drawn) | 1330
O=C1NCCCCCN(C(=O)Nc2ccccc2)[C@H]2CCCC[C@@H]12 | 577
O=C(NCCC1=CCCCC1)C1CCN(Cc2cc3ccccc3n2Cc2ccccc2)CC1 | 880
O=C(NCCc1c[nH]c2ccccc12)c1cc(=O)[nH]c2ccccc12 | 682
CCn1c(=O)oc2cc(-c3noc(-c4cc(C)cc(C)c4)n3)ccc21 | 1300
CC(C)n1c(SCC(=O)N2CCCC2)nnc1-c1ccc2c(c1)OCCCO2 | 671
Cc1cccc(NC(=O)NCC(c2cccnc2)c2cn(C)c3ccccc23)c1 (stereo not drawn) | 723
Cc1noc(N)c1-c1ccc(Cl)cc1 | 807
CC(NC(=O)c1cn(C)c2ncccc12)c1ccccn1 (stereo not drawn) | 552
O=C(CCc1c(-c2ccc(Cl)cc2)nc2ccccn12)NCCC1=CCCCC1 | 756
Cc1cc(C)cc(NC(=O)c2cc3sccc3n2C)c1 | 1090

SMILES | RP-LC retention time [s]
CCCS(=O)(=O)N1CCCN(C2=NS(=O)(=O)C(c3ccc(Cl)cc3)=C2C)CC1 | 934
COc1cccc(S(=O)(=O)N2C[C@@H](F)C[C@H]2C(=O)N2CCOCC2)c1 | 676
CN(C)c1cc(-n2cnc(C(=O)NCc3ccc(Cl)cc3)c2)ncn1 | 825
CCC(C(=O)NCc1ccco1)n1c2ccccc2c2cnn(C)c(=O)c21 (stereo not drawn) | 777
COc1ccc(-c2nnc(-c3ccccc3)o2)cc1S(=O)(=O)N1CCC(C(=O)O)CC1 | 774
COC(=O)c1c(C)[nH]c(C(=O)N2CCC(CC(=O)NCc3ccccc3Cl)CC2)c1C | 775
Cc1ccc(-c2nc(-c3ccc4nnn(C)c4c3)no2)c(C)c1 | 1170
CC(C)CC(=O)N1CCc2c([nH]c3ccccc23)C12C(=O)N(C)c1ccc(Br)cc12 (stereo not drawn) | 1040
O=C(NC1CC1)c1ccc(OCC2CCN(C(=O)C3(c4ccccc4)CC3)CC2)cc1 | 859
CCOC(=O)Cn1cccc1-c1nc(-c2ccncc2)no1 | 844
CN1C(=O)c2cc(C(=O)NCc3cccc(F)c3)nn2CC1(C)C(=O)NCc1ccccc1 (stereo not drawn) | 747
CCCNC(=O)C1CCCN(C(=O)c2[nH]c(C)c(C)c2C)C1 (stereo not drawn) | 721
O=C(NCCc1csc(-c2cccc(F)c2)n1)c1ccc([N+](=O)[O-])cc1Cl | 917
CCc1ccccc1NC(=O)Nc1ccc2nncn2c1 | 662
CC(NC(=O)Cn1cc(C(=O)c2ccco2)c2ccccc21)c1ccc2c(c1)OCCCO2 (stereo not drawn) | 837
Cc1ccccc1OCC(=O)N1CCc2cc(-c3ccno3)ccc21 | 971
CNC(=O)CCNc1c(-c2cccc(F)c2)nc2cnccn12 | 606
O=c1n(Cc2cccc(Cl)c2)nc2c(S(=O)(=O)N3CCc4ccccc4C3)cccn12 | 1010
Cc1ccc(C(C)NC(=O)C2CC(=O)N(c3cccc(NC(=O)C(C)C)c3)C2)c(C)c1 (stereo not drawn) | 868
CCN1C(=O)COc2ccc(-c3nc(NC(C)=O)sc3C)cc21 | 759
CN(C)C(=O)[C@@]12CCCC[C@H]1N(CCc1ccccc1)C(=O)CC2 | 725
Cc1ccc(NS(=O)(=O)c2cc(-c3[nH]ncc3C(=O)N3CCOCC3)oc2C)c(F)c1 | 701

SMILES | RP-LC retention time [s]
Cc1ccc(F)cc1S(=O)(=O)N1CCc2c(c(-c3nnc(-c4ccc(F)cc4)o3)nn2C)C1 | 1000
Cc1ccc(Cn2c(N3CCCC(C(=O)NC4CCCC4)C3)nc3ccsc3c2=O)cc1 (stereo not drawn) | 967
CC1(C(=O)NCc2ccccc2)CN(S(=O)(=O)c2ccccc2)CC(=O)N1c1ccc(Cl)cc1 (stereo not drawn) | 956
Cc1ccc(NC(=O)N2CCN(C(=O)N3C[C@H]4C[C@H](C3)[C@H]3CCCC(=O)N3C4)CC2)cc1C | 698
CC1=C(c2ccc(F)cc2)S(=O)(=O)N=C1N1CCCN(C(=O)c2sccc2C)CC1 | 830
OC[C@@H]1CN(Cc2ccco2)C[C@H]1c1nc(-c2ccncc2)no1 | 547
Cc1ccc(C(=O)NCc2nc(-c3ccc4c(c3)ncn4C)no2)cc1 | 634
CCN(C(=O)C1CCCN1S(=O)(=O)c1cc2c(cc1C)NC(=O)C(C)O2)c1cccc(C)c1 (stereo not drawn) | 868
CCn1ccc2cc(S(=O)(=O)N3CCCN(C(=O)Nc4ccccc4)CC3)ccc21 | 868
CO[C@@H]1COCC[C@@H]1N[C@@H]1CC[C@@](C(=O)N2CCc3ncc(C(F)(F)F)cc3C2)(C(C)C)C1 | 709
COc1ccccc1CNC(=O)Cn1nc2c(N3CCSCC3)nccn2c1=O | 767
COCCn1cc2c3c(cccc31)CN(C(=O)Cc1c(F)cccc1Cl)CC2 | 967
CCSc1nnc(-c2nn(C)c3c2CN(C(=O)c2ccccc2C)CC3)n1C | 734
CCOc1ccc(CNC(=O)c2cnc(N3CCN(C4CCCCC4)CC3)nc2N)cc1 | 658
O=C(C(c1ccccc1)n1cccc1)N1CCCC1 (stereo not drawn) | 782
O=C(Nc1ccc2c(c1)OCO2)Nc1cccn2c(C3CCC3)nnc12 | 801
CCN1CCN(CCCNc2nnc(-c3nc(C4CC4)no3)c3ccccc23)CC1 | 584
Cc1cnc(-c2ccncc2)n1CC1CN(S(=O)(=O)c2ccc3c(c2)CCC3)C1 | 651
O=C(c1ccc(C(F)(F)F)cc1)N1CCN(c2nnc3ccccn23)CC1 | 698
Cc1nc(-c2ccc3c(c2)CCN3C(=O)COc2ccc(Cl)cc2)no1 | 976
CCOc1ccccc1NC(=O)N1CCN(c2cc(C)nc(N3CCCC3)n2)CC1 | 692
CN1C(=O)c2cc(S(=O)(=O)Nc3ccc(F)c(F)c3)ccc2Oc2cccnc21 | 910

SMILES | RP-LC retention time [s]
COc1ccc(C(=O)N(Cc2cc(OC)c(OC)c(OC)c2)C2CCS(=O)(=O)C2)cc1 (stereo not drawn) | 749
Cc1ccc(CC(=O)N2CCC3(CC2)NC(=O)c2cc(F)ccc2N3C)cc1 | 804
COC(=O)c1c(NCCO)c2cccc(Cl)c2[nH]c1=O | 610
Cc1ccc(CNC(=O)C2(C)CCN(S(=O)(=O)c3ccc(Br)cc3)CC2)cc1 | 1030
COc1cccc(S(=O)(=O)Nc2ccc3c(c2)CCC(=O)N3CC(C)C)c1 | 868
CC(C)NC(=O)C1CCCN(c2nc3ncn(CC(=O)NCc4ccc(F)cc4)c(=O)c3s2)C1 (stereo not drawn) | 689
CN(Cc1cccn1C)C(=O)NC1CCCC1 | 775
CNC(=O)[C@@H]1C[C@H](Oc2ccccc2)CN1C(=O)c1ccco1 | 670
CCOC(=O)N1CCN(C(c2ccc(F)cc2)c2sc3ncnn3c2O)CC1 (stereo not drawn) | 667
COC1CN(C2CCN(C(=O)c3cccs3)CC2)C12CCOCC2 (stereo not drawn) | 572
CCN(Cc1ccccc1)S(=O)(=O)c1cc(-c2nc(C)cs2)sc1C | 1200
CC1(C(=O)NCc2ccc(F)cc2)Cn2cnc(C(=O)NC3CCCCC3)c2C(=O)N1C1CC1 (stereo not drawn) | 765
COc1ccccc1-c1nnc(NC(=O)C2CC(=O)N(c3ccc(F)cc3)C2)o1 (stereo not drawn) | 652
C=CCn1c(NCc2cccc(Br)c2)nc2ccccc21 | 703
CCS(=O)(=O)c1ccc2c(c1)N(Cc1nc(-c3ccc(Br)cc3)no1)C(=O)CO2 | 988
CCCNC(=O)C1CCCN(c2nc3ncn(CC(=O)NC4CCc5ccccc54)c(=O)c3s2)C1 (stereo not drawn) | 709
CC(C)Cn1cc(CCNC(=O)c2cc(F)ccc2F)c2cccnc21 | 868
Cn1cnnc1SCCNC(=O)CNC(=O)c1ccc(=O)[nH]c1 | 494
Cc1cc(-n2cc(C(=O)N3CCC(NC(=O)Cc4cccs4)CC3)nn2)ccc1F | 746
O=C(N[C@H]1C[C@@H]2C[C@H]1CN2S(=O)(=O)c1cccc2nsnc12)c1ccccc1 | 722
CCOC(=O)c1c(C)[nH]c(C(=O)N2CCCC(C(=O)NCc3ccccc3F)C2)c1C (stereo not drawn) | 790
CN1C(=O)CC2(C)C1=CCc1scnc12 (stereo not drawn) | 636
